48 compounds from patent publication US20110028447A1, “INDAZOLE DERIVATIVES” (Pfizer Inc., priority 2008, published 2011) can be followed below.

pKi: −log10 of the molar value. Like-named read-outs stand apart in the source and are kept apart here.

The experiment deals with human CB1 receptor (Homo sapiens, UniProt P21554). Description: Human CB1 receptor binding, [3H] CP-55,940 displacement on HEK cell membranes. Details: expressed in transfected cells; host or cells: HEK cells, doxycycline-induced; membrane preparation. On the procedure: The Human CB1 receptor binding affinity and other biological activities of the compounds of this invention are determined by the following procedures. Membrane preparation: Human Embryonic Kidney (HEK) Cells expressing the human CB1 receptor under transcriptional regulation of a tetracycline inducible promoter were grown in Dulbecco's Modified Essential Medium with sodium pyruvate (Invitrogen, Carlsbad, Calif.) containing 10% tetracycline free fetal bovine serum (Clonetech, Mountain View, Calif.) 100 μg/ml hygromycin (Calbiochem, San Diego, Calif.), 5 μg/ml blasticidin (Invitrogen). CB1 receptor expression was induced by addition of 1 μg/ml doxycycline (Calbiochem) and incubation for an additional 24 hours. Cells were released from flasks using Cell Dissociation Buffer (Invitrogen). Cells were pelleted by centrifugation at 500×G for 5 minutes. Membranes were prepared by resuspending cells in ice cold TEE Buffer (25 mM Tris pH 7.4, 5 mM EDTA, 5 mM EGTA, Complete Protease Inhibitor (Roche, Basel, Switzerland)). Cells were lysed with 12 strokes of a dounce homogenizer. Unlysed cells were pelleted by centrifugation at 500×G for 5 minutes. Membranes were pelleted by centrifugation at 25,000×G for 30 minutes. Membranes were resuspended in TEE, dounced 12 strokes, and pelleted a second time at 25,000×G for 30 minutes. Membrane pellet was resuspended in 50 mM Tris pH 7.4, 100 mM NaCl, 3 mM MgCl2, 0.2 mM EGTA, Complete Protease Inhibitor (Roche). Protein concentration was determined using the Micro-BCA Protein Assay Kit (Pierce, Rockford, Ill.) using BSA as a standard. Membranes were quick frozen and stored at −80 degrees Celsius until use.
Binding experiments: 50 μl of test compound was incubated with 50 μl of [^3H] CP-55,940 (Perkin Elmer, Boston, Mass.) (final concentration=[…]) and 150 μl of membrane homogenate (1 μg/well) in polypropylene 96-well plates (Corning, Acton, Mass.). Final reaction conditions were 50 mM Tris pH 7.4, 100 mM NaCl, 3 mM MgCl2, 0.2 mM EGTA, 0.04% BSA. Nonspecific binding was determined by incubation with 50 μM WIN-55, 212-2 (Tocris, Ellisville, Mo.). After incubation at room temperature for 60 minutes reactions were harvested by vacuum filtration through Unifilter GF/B-96 filters (Perkin Elmer) that had been presoaked in assay buffer containing 0.5% BSA (Sigma, St. Louis, Mo.) using a FilterMate Plate Harvester (Perkin Elmer). Filters were rinsed 4 times with 50 mM Tris pH 7.4, 0.025% Tween-20 and dried at 50 degrees Celsius for at least 30 minutes. 40 μl of Microscint-20 (Perkin Elmer) was added per well, and plates were counted using a Top-Count Microplate Scintillation Counter (Perkin Elmer). Binding data were analyzed and EC50 and K, values calculated using Graph Pad Prism 4.0 Software.

Chain of human CB1 receptor (P21554 whole entry): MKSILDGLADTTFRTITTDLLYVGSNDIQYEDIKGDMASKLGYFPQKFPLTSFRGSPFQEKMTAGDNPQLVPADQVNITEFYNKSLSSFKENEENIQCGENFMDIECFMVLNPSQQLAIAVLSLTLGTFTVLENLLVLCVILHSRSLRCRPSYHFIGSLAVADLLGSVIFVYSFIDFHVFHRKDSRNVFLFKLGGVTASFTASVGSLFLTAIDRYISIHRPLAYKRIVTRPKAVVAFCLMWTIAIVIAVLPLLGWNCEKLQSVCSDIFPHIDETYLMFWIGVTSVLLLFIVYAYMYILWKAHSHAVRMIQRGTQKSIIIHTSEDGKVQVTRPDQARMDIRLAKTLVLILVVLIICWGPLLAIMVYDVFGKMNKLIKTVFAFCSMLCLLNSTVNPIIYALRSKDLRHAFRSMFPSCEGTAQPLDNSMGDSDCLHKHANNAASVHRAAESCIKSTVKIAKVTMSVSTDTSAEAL

The pKi is the Ki on a negative log10 scale, so that one unit is a factor of ten. Consider `NC(=O)[C@H](Cc1ccccc1)NC(=O)c1nn(Cc2ccc(F)cc2)c2ccccc12` [Example 4, N-α-{[1-(4-fluorobenzyl)-1H-indazol-3-yl]carbonyl}-L-phenylalaninamide], for which, for the setting “CB1 Ki”, the pKi was 6.15.

Under “CB1 Ki”, `Cc1cc(Cn2nc(C(=O)N[C@H](C(N)=O)C(C)(C)C)c3ccccc32)no1` [Example 5, N-[(1S)-1-(aminocarbonyl)-2,2-dimethylpropyl]-1-[(5-methylisoxazol-3-yl)methyl]-1H-indazole-3-carboxamide] showed a negative logarithm of the Ki (pKi) of 6.02.

As to `CC(C)(C)[C@H](NC(=O)c1nn(Cc2ccc(F)cc2)c2ccccc12)C(=O)NCC(=O)O` [Example 9, N-{[1-(4-fluorobenzyl)-1H-indazol-3-yl]carbonyl}-3-methyl-L-valylglycine], under “CB1 Ki”, the pKi was 7.07.

On to `CC(C)(C)C(NC(=O)c1nn(Cc2ccccc2C(N)=O)c2ccccc12)C(N)=O` (stereo not drawn) [Example 34], for which, for the setting “read-out: CB1 Ki”, the negative logarithm of the Ki (pKi) is 6.81.

On to `COc1cccc(C2(NC(=O)[C@@H](NC(=O)c3nn(Cc4ccc(C#N)cc4)c4c(F)cccc34)C(C)(C)C)CC2)c1` [Example 212], for which the pKi (read-out: CB1 Ki) was 7.28.

Turning to `CC(C)(C)[C@H](NC(=O)c1nn(Cc2ccc(C#N)cc2)c2c(F)cccc12)C(=O)N[C@H](CO)c1ccccc1` [Example 216], where the note is “read-out: CB1 Ki”, the pKi is 6.65.

Where the note is “CB1 Ki”, `CC(C)(C)[C@H](NC(=O)c1nn(Cc2ccc(C#N)cc2)c2ccccc12)C(=O)NCc1nn[nH]n1` [Example 217] showed a pKi of less than 6.40.

For `CC(C)(C)[C@H](NC(=O)c1nn(Cc2ccc(F)cc2)c2ccccc12)C(=O)N1C[C@@H]2C[C@H]1CN2C(N)=O` [Example 219], where the note is “read-out: CB1 Ki”, the pKi was less than 6.40.

Take `CC(C)(C)[C@H](NC(=O)c1nn(Cc2ccc(C#N)cc2)c2c(F)cccc12)C(=O)NCCS(C)(=O)=O` [Example 221]: the negative-log Ki (pKi) (CB1 Ki) is 7.06.

The compound `CC(C)(C)[C@H](NC(=O)c1nn(Cc2ccc(C#N)cc2)c2c(F)cccc12)C(=O)NCCS(N)(=O)=O` [Example 222] had a pKi (CB1 Ki) of 7.67.

For the compound `CC(C)(C)[C@H](NC(=O)c1nn(Cc2ccc(F)cc2)c2ccccc12)C(=O)N1C[C@@H]2C[C@H]1CN2C(=O)CCC(N)=O` [Example 227], the negative logarithm of the Ki (pKi) (read-out: CB1 Ki) is less than 6.40.

For `CC(C)(C)[C@H](NC(=O)c1nn(Cc2ccc(F)cc2)c2ccccc12)C(=O)N1CCC(O)(CNC(=O)C2CC2)CC1` [Example 229], the pKi (read-out: CB1 Ki) is 7.50.

Take `CC(C)(C)[C@H](NC(=O)c1nn(Cc2ccc(F)cc2)c2ccccc12)C(=O)N1C[C@@H]2C[C@H]1CN2CC(O)CO` (stereo partly drawn) [Example 232]: for the setting “read-out: CB1 Ki”, the pKi was 7.27.

Compound `CC(C)(C)[C@H](NC(=O)c1nn(Cc2ccc(F)cc2)c2ccccc12)C(=O)N[C@H](CO)C(=O)O` [Example 235] had a negative-log Ki (pKi) (CB1 Ki) of 6.65.

Compound `COC(=O)[C@@H](O)CNC(=O)[C@@H](NC(=O)c1nn(Cc2ccc(C#N)cc2)c2ccccc12)C(C)(C)C` [Example 237] gave a pKi (CB1 Ki) of less than 6.40.

`CC(C)(C)[C@H](NC(=O)c1nn(Cc2ccc(F)cc2)c2ccccc12)C(=O)N[C@@H](CC(N)=O)C(N)=O` [Example 239]: the pKi (read-out: CB1 Ki) is 7.33.

Regarding `CC(C)(C)[C@H](NC(=O)c1nn(Cc2ccc(F)cc2)c2ccccc12)C(=O)N[C@@H](CO)C(=O)O` [Example 240], the pKi (CB1 Ki) was 6.82.

On to `CC(C)(C)[C@H](NC(=O)c1nn(Cc2ccc(F)cc2)c2ccccc12)C(=O)N[C@@H]1CCCC[C@H]1O` [Example 248], for which the negative-log Ki (pKi) (CB1 Ki) is 6.97.

`CC(C)(C)[C@H](NC(=O)c1nn(Cc2ccc(F)cc2)c2ccccc12)C(=O)N[C@H]1CCCC[C@@H]1O` [Example 252] showed a negative logarithm of the Ki (pKi) (CB1 Ki) of 6.69.

Where the note is “CB1 Ki”, `CC(C)(C)[C@H](NC(=O)c1nn(Cc2ccc(C(F)(F)F)cc2)c2ccccc12)C(=O)NC[C@H](O)CO` [Example 256] had a negative-log Ki (pKi) of 7.01.

Regarding `CC(C)(C)[C@H](NC(=O)c1nn(Cc2ccc(C(F)(F)F)cc2)c2ccccc12)C(=O)NCCS(N)(=O)=O` [Example 257], the pKi (CB1 Ki) is 6.65.

As for `CC(C)(C)[C@H](NC(=O)c1nn(Cc2ccc(C(F)(F)F)cc2)c2ccccc12)C(=O)NCCS(C)(=O)=O` [Example 258], under “CB1 Ki”, the pKi is less than 6.40.

For `CC(C)(C)[C@H](NC(=O)c1nn(Cc2ccc(C(F)(F)F)cc2)c2ccccc12)C(=O)NCC(N)=O` [Example 259], under “CB1 Ki”, the negative logarithm of the Ki (pKi) is 6.88.

Turning to `CC(C)(C)[C@H](NC(=O)c1nn(Cc2ccc(C(F)(F)F)cc2)c2ccccc12)C(=O)NC[C@@H](O)CO` [Example 260], the pKi (CB1 Ki) was less than 6.40.

The compound `CC(C)(C)[C@H](NC(=O)c1nn(Cc2ccc(C(F)(F)F)cc2)c2ccccc12)C(=O)NC(CO)CO` [Example 261] had a pKi (CB1 Ki) of 7.12.

With `CC(C)(C)[C@H](NC(=O)c1nn(Cc2ccc(C(F)(F)F)cc2)c2ccccc12)C(=O)NCCNS(=O)(=O)c1ccc(C#N)cc1` [Example 267], the pKi (read-out: CB1 Ki) is 7.11.

For the setting “CB1 Ki”, `CC(C)(C)[C@H](NC(=O)c1nn(Cc2ccc(C#N)cc2)c2ccccc12)C(=O)N1CCS(=O)(=O)CC1` [Example 268] showed a pKi of less than 6.40.

Turning to `CC(C)(C)[C@H](NC(=O)c1nn(Cc2ccc(F)cc2)c2ccccc12)C(=O)N1CCS(=O)(=O)CC1` [Example 269], the negative-log Ki (pKi) (CB1 Ki) is 7.62.

`CC(C)(C)[C@H](NC(=O)c1nn(Cc2cccc3ccccc23)c2ccccc12)C(N)=O` [Example 272] gave a pKi (CB1 Ki) of less than 6.40.

With `CC(C)(C)[C@H](NC(=O)c1nn(Cc2cccc3ccccc23)c2ccccc12)C(=O)NC1CC1` [Example 273], under “CB1 Ki”, the pKi is less than 6.40.

Where the note is “CB1 Ki”, `CC(C)(C)[C@H](NC(=O)c1nn(Cc2cccc3ccccc23)c2ccccc12)C(=O)NCCO` [Example 274] gave a pKi of less than 6.40.

Take `CC(C)(C)[C@H](NC(=O)c1nn(Cc2cccc3ccccc23)c2ccccc12)C(=O)NCC(N)=O` [Example 275]: the pKi (CB1 Ki) is less than 6.40.

In turn, `CC(C)(C)[C@H](NC(=O)c1nn(Cc2cccc3ccccc23)c2ccccc12)C(=O)NC[C@H](O)CO` [Example 276] showed a pKi (CB1 Ki) of less than 6.40.

Turning to `CC(C)(C)[C@H](NC(=O)c1nn(Cc2ccc(F)cc2)c2ccccc12)C(=O)N1CCCC(C(=O)NCCO)C1` (stereo partly drawn) [Example 277], where the note is “read-out: CB1 Ki”, the negative logarithm of the Ki (pKi) is 7.50.

With `CC(C)(C)[C@H](NC(=O)c1nn(Cc2ccc(F)cc2)c2ccccc12)C(=O)N1CCCC(C(=O)NC[C@H](O)CO)C1` (stereo partly drawn) [Example 278], the pKi (read-out: CB1 Ki) was 7.16.

`CC(C)(C)[C@H](NC(=O)c1nn(Cc2ccc(F)cc2)c2ccccc12)C(=O)N[C@H]1CCC[C@@H]1O` [Example 279]: the negative-log Ki (pKi) (CB1 Ki) is 7.27.

The compound `CC(C)(C)[C@H](NC(=O)c1nn(Cc2ccc(F)cc2)c2ccccc12)C(=O)N[C@H]1CCC[C@H]1O` [Example 280] had a negative logarithm of the Ki (pKi) (CB1 Ki) of 6.75.

For the setting “CB1 Ki”, `CC(C)(C)[C@H](NC(=O)c1nn(Cc2ccc(C#N)cc2)c2ccccc12)C(=O)NC[C@@H](O)C(N)=O` [Example 283] showed a negative-log Ki (pKi) of less than 6.40.

Regarding `CC(C)(C)[C@H](NC(=O)c1nn(Cc2ccc(C#N)cc2)c2ccccc12)C(=O)N1C[C@@H](O)[C@@H](O)C1` [Example 285], the pKi (CB1 Ki) is 7.55.

Consider `CC(C)(C)[C@H](NC(=O)c1nn(Cc2ccc(C#N)cc2)c2c(F)cccc12)C(=O)N[C@H]1CCc2ccccc21` [Example 287], for which the negative-log Ki (pKi) (read-out: CB1 Ki) is less than 6.40.

For the compound `CC(C)(C)[C@H](NC(=O)c1nn(Cc2ccc(F)cc2)c2ccccc12)C(=O)N[C@H](CC(N)=O)C(N)=O` [Example 290], where the note is “read-out: CB1 Ki”, the negative-log Ki (pKi) was 7.04.

In the case of `CC(C)(C)[C@H](NC(=O)c1nn(Cc2ccc(F)cc2)c2ccccc12)C(=O)NCC(=N)N` [Example 291], the pKi (CB1 Ki) is 8.92.

For `CC(C)(C)[C@H](NC(=O)c1nn(Cc2ccc(F)cc2)c2ccccc12)C(=O)N1CCC[C@H]1C(=O)NCCO` [Example 293], under “read-out: CB1 Ki”, the pKi was less than 6.40.

`CC(C)(C)[C@H](NC(=O)c1nn(Cc2ccc(F)cc2)c2ccccc12)C(=O)N1CCC[C@H]1C(=O)NC[C@H](O)CO` [Example 294]: where the note is “read-out: CB1 Ki”, the pKi was less than 6.40.

Regarding `CC(C)(C)[C@H](NC(=O)c1nn(Cc2ccc(C#N)cc2)c2cc(F)ccc12)C(=O)NC(CO)CO` [Example 296], for the setting “CB1 Ki”, the pKi was 7.19.

For `CC(C)(C)[C@H](NC(=O)c1nn(Cc2ccc(C#N)cc2)c2cc(F)ccc12)C(=O)NC[C@@H](O)CO` [Example 297], where the note is “CB1 Ki”, the pKi was 6.91.

In turn, `CC(C)(C)[C@H](NC(=O)c1nn(Cc2ccc(C#N)cc2)c2cc(F)ccc12)C(=O)NC[C@H](O)CO` [Example 298] gave a negative-log Ki (pKi) (CB1 Ki) of 6.74.

In turn, `CC(C)(C)[C@H](NC(=O)c1nn(Cc2ccc(C#N)cc2)c2cc(F)ccc12)C(=O)NCC(N)=O` [Example 301] gave a pKi (CB1 Ki) of 7.15.
